We go through ten molecules from BindingDB's records for doi:10.1021/bi400945y (Johns Hopkins Bloomberg School of Public Health, 2013).

The term pIC50 denotes the negative decadic logarithm of the IC50, by convention in mol/L. A higher pIC50 goes with a low IC50.

pIC50: −log10 of the molar value.

In this assay the target is T1, Enoyl-acyl carrier reductase ENR (Toxoplasma gondii, UniProt Q6UCJ9).
T1 sequence (Q6UCJ9 whole entry): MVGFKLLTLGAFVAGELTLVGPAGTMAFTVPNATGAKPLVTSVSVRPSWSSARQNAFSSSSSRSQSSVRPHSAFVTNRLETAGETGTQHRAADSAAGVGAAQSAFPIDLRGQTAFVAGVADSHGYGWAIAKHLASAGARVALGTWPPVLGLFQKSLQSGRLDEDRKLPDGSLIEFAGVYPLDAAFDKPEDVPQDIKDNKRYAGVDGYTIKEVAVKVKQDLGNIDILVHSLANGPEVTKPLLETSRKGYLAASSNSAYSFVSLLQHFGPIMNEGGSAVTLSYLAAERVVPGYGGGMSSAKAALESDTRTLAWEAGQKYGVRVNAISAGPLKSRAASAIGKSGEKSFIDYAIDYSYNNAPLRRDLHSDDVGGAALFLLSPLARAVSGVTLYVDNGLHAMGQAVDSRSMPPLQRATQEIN
Description: TgENR Inhibition Assay. To be noted: pH 7.5.
The molecule `Oc1cc(Cl)ccc1Oc1ccc(CNc2ccccc2)cc1Cl` [5‐chloro‐2‐{2‐chloro‐4‐ [(phenylamino)methyl]phenoxy}phenol (26)] had a pIC50 of 7.51.
On to `CCc1ccc(Oc2ccc(Cl)cc2Cl)c(O)c1` [2‐(2,4‐dichlorophenoxy)‐5‐ethylphenol (11)], for which the negative logarithm of the IC50 (pIC50) is 8.10.
Take `N#Cc1ccccc1CNc1ccc(Oc2ccc(Cl)cc2O)c(Cl)c1`: the pIC50 is 7.80.
Regarding `Cc1cc(CC(=O)NCc2ccc(Oc3ccc(Cl)cc3O)c(Cl)c2)on1` [N‐{[3‐chloro‐4‐(4‐chloro‐2‐ hydroxyphenoxy)phenyl]methyl}‐2‐(3‐methyl‐1,2‐ oxazol‐5‐yl)acetamide (28)], the negative-log IC50 (pIC50) was 7.48.
With `N#Cc1ccc(Oc2ccc(Cl)cc2Cl)c(O)c1` [4‐(2,4‐dichlorophenoxy)‐3‐hydroxybenzonitrile (19)], the negative logarithm of the IC50 (pIC50) was 7.62.
Under `Oc1cc(Cl)ccc1Oc1ccc(NCc2ccccc2)cc1Cl` stands 7.89.
The same measure for `Oc1cc(Cl)ccc1Oc1ccc(Cn2ccnn2)cc1Cl` [5‐chloro‐2‐[2‐chloro‐4‐(1,2,3‐triazol‐1‐ ylmethyl)phenoxy]phenol (24)]: 7.59; for `CCCCc1cn(Cc2ccc(Oc3ccc(Cl)cc3O)c(Cl)c2)nn1` [2‐{4‐[(4‐butyl‐1,2,3‐triazol‐1‐yl)methyl]‐2‐ chlorophenoxy}‐5‐chlorophenol (25)]: 7.37; for `Cc1cc(C(=O)NCc2ccc(Oc3ccc(Cl)cc3O)c(Cl)c2)no1` [N‐{[3‐chloro‐4‐(4‐chloro‐2‐ hydroxyphenoxy)phenyl]methyl}‐5‐methyl‐1,2‐oxazole‐3‐ carboxamide (29)]: 7.00.
`Oc1ccc(Oc2ccc(Cl)cc2O)c(Cl)c1` gave a pIC50 of 8.52.
